According to ChEMBL document CHEMBL1201862, “PubChem BioAssay data set” (2004):
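How tested: cells in 96-well plates exposed to compound for 48 hours at five concentrations. GI50 is the concentration that inhibits growth by half.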 The source made the active and inactive calls. No stated cut-off is given here; in the data, active = GI50 up to about 1.1 µM and inactive = higher.

Assays:
Test in all cases: NCI-60 cell line screen, 48 h
786-0 = tested on: 786-0
A498 = tested on: A498
A549 = tested on: A549
ACHN = tested on: ACHN
BT-549 = tested on: BT-549
CAKI-1 = tested on: CAKI-1
CCRF-CEM = tested on: CCRF-CEM
DU-145 = tested on: DU-145
HCC 2998 = tested on: HCC 2998
HCT-15 = tested on: HCT-15
HL-60 = tested on: HL-60
HOP-62 = tested on: HOP-62
HT-29 = tested on: HT-29
Hs-578T = tested on: Hs-578T
IGROV-1 = tested on: IGROV-1
K562 = tested on: K562
KM12 = tested on: KM12
LOX IMVI = tested on: LOX IMVI
M14 = tested on: M14
MCF7 = tested on: MCF7
MDA-MB-231 = tested on: MDA-MB-231
MDA-MB-435 = tested on: MDA-MB-435
MDA-N = tested on: MDA-N
MOLT-4 = tested on: MOLT-4
Malme-3M = tested on: Malme-3M
NCI-H226 = tested on: NCI-H226
NCI-H23 = tested on: NCI-H23
NCI-H460 = tested on: NCI-H460
NCI-H522 = tested on: NCI-H522
NCI/ADR-RES = tested on: NCI/ADR-RES
OVCAR-3 = tested on: OVCAR-3
OVCAR-5 = tested on: OVCAR-5
OVCAR-8 = tested on: OVCAR-8
PC-3 = tested on: PC-3
RPMI-8226 = tested on: RPMI-8226
RXF 393 = tested on: RXF 393
SF-268 = tested on: SF-268
SF-295 = tested on: SF-295
SF-539 = tested on: SF-539
SK-MEL-28 = tested on: SK-MEL-28
SK-MEL-2 = tested on: SK-MEL-2
SK-MEL-5 = tested on: SK-MEL-5
SK-OV-3 = tested on: SK-OV-3
SN12C = tested on: SN12C
SNB-19 = tested on: SNB-19
SW-620 = tested on: SW-620
T47D = tested on: T47D
TK-10 = tested on: TK-10
UACC-257 = tested on: UACC-257
UACC-62 = tested on: UACC-62
UO-31 = tested on: UO-31
COLO 205 = tested on: COLO 205
EKVX = tested on: EKVX
HOP-92 = tested on: HOP-92
OVCAR-4 = tested on: OVCAR-4
SNB-75 = tested on: SNB-75
HCT-116 = tested on: HCT-116
SR = tested on: SR
U-251 = tested on: U-251

Measured: GI50

O=[N+]([O-])c1ccc2c(c1)c(OCc1ccccc1)nn2Cc1ccccc1
inactive: 786-0 55000 nM | A498 33000 nM | A549 64100 nM | ACHN 43800 nM | BT-549 71800 nM | CAKI-1 > 100000 nM | CCRF-CEM 40100 nM | DU-145 > 100000 nM | HCC 2998 58900 nM | HL-60 > 100000 nM | HOP-62 36300 nM | HT-29 > 100000 nM | Hs-578T 52800 nM | IGROV-1 > 100000 nM | K562 > 100000 nM | KM12 > 100000 nM | LOX IMVI > 100000 nM | M14 > 100000 nM | MCF7 > 100000 nM | MDA-MB-231 > 100000 nM | MDA-MB-435 > 100000 nM | MDA-N > 100000 nM | MOLT-4 57000 nM | Malme-3M 78500 nM | NCI-H226 > 100000 nM | NCI-H23 > 100000 nM | NCI-H460 > 100000 nM | NCI-H522 23000 nM | NCI/ADR-RES > 100000 nM | OVCAR-3 > 100000 nM | OVCAR-5 > 100000 nM | OVCAR-8 > 100000 nM | PC-3 63100 nM | RPMI-8226 > 100000 nM | RXF 393 34200 nM | SF-268 > 100000 nM | SF-295 51200 nM | SF-539 34500 nM | SK-MEL-28 72600 nM | SK-MEL-2 > 100000 nM | SK-MEL-5 58200 nM | SK-OV-3 > 100000 nM | SN12C > 100000 nM | SNB-19 > 100000 nM | SW-620 > 100000 nM | T47D > 100000 nM | TK-10 62100 nM | UACC-257 > 100000 nM | UACC-62 80400 nM | UO-31 > 100000 nM
53000 nM: HCT-15

COC(=O)[C@@]12OC[C@]34[C@H]([C@@H](O)[C@@H]1O)[C@@]1(C)CC(=O)C(OC(C)=O)=C(C)[C@@H]1C[C@H]3OC(=O)[C@H](OC(=O)C=C(C)C)[C@@H]24
inactive: ACHN 1820 nM | BT-549 1520 nM | CAKI-1 2700 nM | DU-145 1340 nM | EKVX 1440 nM | MDA-MB-231 1810 nM | NCI/ADR-RES 12800 nM | OVCAR-5 1750 nM | SN12C 1170 nM | SNB-75 1440 nM | UO-31 2640 nM
active: 786-0 895 nM | A498 430 nM | A549 838 nM | COLO 205 764 nM | HOP-62 607 nM | HOP-92 813 nM | HT-29 543 nM | Hs-578T 857 nM | KM12 596 nM | M14 755 nM | MDA-MB-435 738 nM | MDA-N 714 nM | NCI-H226 746 nM | NCI-H23 574 nM | OVCAR-4 752 nM | OVCAR-8 743 nM | PC-3 948 nM | RXF 393 750 nM | SF-268 853 nM | SF-295 820 nM | SK-MEL-2 656 nM | SNB-19 627 nM | SW-620 914 nM | T47D 977 nM | TK-10 1000 nM | UACC-257 557 nM | UACC-62 721 nM
1770 nM: HCT-15

CN(CCCNc1ccc2ncn3c4ccccc4c(=O)c1c23)CCCN1C(=O)c2cccc3cc([N+](=O)[O-])cc(c23)C1=O
inactive: A498 1400 nM | OVCAR-5 1140 nM | PC-3 1140 nM | SK-MEL-28 1120 nM | SK-MEL-2 1580 nM | SK-OV-3 1280 nM | T47D 1180 nM
15.3 nM: HCT-15
active: A549 6.28 nM | ACHN 1.2 nM | BT-549 106 nM | CAKI-1 29 nM | CCRF-CEM 61.4 nM | COLO 205 8.15 nM | EKVX 56.1 nM | HCC 2998 11.5 nM | HCT-116 1.74 nM | HL-60 35.8 nM | HOP-62 47.2 nM | HOP-92 1040 nM | HT-29 1.49 nM | Hs-578T 87.9 nM | IGROV-1 9.48 nM | K562 20.1 nM | KM12 29.2 nM | LOX IMVI 7.71 nM | M14 48.1 nM | MCF7 5.41 nM | MDA-MB-231 20.1 nM | MDA-MB-435 21.9 nM | MDA-N 32.1 nM | MOLT-4 5.65 nM | Malme-3M 24.4 nM | NCI-H226 6.03 nM | NCI-H23 20.8 nM | NCI-H460 2.95 nM | NCI-H522 7.75 nM | NCI/ADR-RES 37.6 nM | OVCAR-3 1100 nM | OVCAR-4 131 nM | OVCAR-8 20.5 nM | RPMI-8226 13.2 nM | RXF 393 26.7 nM | SF-268 24.7 nM | SF-295 13.4 nM | SF-539 5.48 nM | SK-MEL-5 10 nM | SN12C 12.5 nM | SNB-19 40.1 nM | SNB-75 18 nM | SR 1 nM | SW-620 3.25 nM | TK-10 2.21 nM | U-251 9.66 nM | UACC-257 86.7 nM | UO-31 15 nM
